tested on: HCV RNA levels; experiment: not given; details: extended dosing of the combination regimens; cited from earlier work

Q: With `CNC(=O)c1c(-c2ccc(F)cc2)oc2cc(N(CCO)S(C)(=O)=O)c(C3CC3)cc12` [HCV-796] as the compound, how does the hepatic toxicity read?
A: hepatic toxicity observed

same assay, conditions: patients; single agent or combined with interferon and ribavirin; cited from earlier work

Q: Which “HCV RNA levels in patients” value does the source give for `CNC(=O)c1c(-c2ccc(F)cc2)oc2cc(N(CCO)S(C)(=O)=O)c(C3CC3)cc12` [HCV-796] here?
A: reduce HCV RNA levels

tested on: genotype 1b HCV replicon in Huh-7 cells; experiment: HCV replicon luciferase assay, genotype 1b; type: cell-based; details: Hepatitis C virus, 72 h, Huh-7, Renilla luciferase, 3 days, read-out: EC50 1b (class)
Procedure: Cell lines. The cell lines used to evaluate compounds consist of a human hepatocyte derived cell line (Huh-7) that constitutively expresses a genotype 1a or 1b HCV replicon containing a Renilla luciferase reporter gene. These cells were maintained in Dulbecco's modified Eagle medium (DMEM) containing 10% FBS, 100 U/mL penicillin/streptomycin and 1.0 mg/mL G418.
HCV Replicon Luciferase Assay.
To evaluate compound efficacy, HCV replicon cells were seeded in 96-well plates in DMEM containing 10% FBS at a cell density of 10^4/well. Following incubation at 37° C. overnight, compounds serially diluted in DMSO were added to the cell plates. Alternatively, titrated compounds were transferred to sterile 384-well tissue-culture treated plates and the plates seeded with 50 μL of cells at a density of 2.4×10^3 cells/well in DMEM containing 4% FCS (final DMSO concentration at 0.5%). After 3 days incubation at 37° C., cells were analyzed for Renilla Luciferase activity using the EnduRen substrate (Promega cat #E6485) according to the manufacturer's directions. Briefly, the EnduRen substrate was diluted in DMEM and then added to the plates to a final concentration of 7.5 μM. The plates were incubated for at least 1 h at 37° C. then read on a TopCount NXT Microplate Scintillation and Luminescence Counter (Packard) or Viewlux Imager (PerkinElmer) using a luminescence program. The 50% effective concentration (EC50) was calculated using the exponential form of the median effect equation where EC50=100−[(δFinh/δFcon)×100].

Q: Which EC50 does the source give for `CNC(=O)c1c(-c2ccc(F)cc2)oc2cc3c(cc12)-c1cc(C(=O)NC(C)(C)C)cc(c1)N(S(C)(=O)=O)CCCCN3S(C)(=O)=O` [Compound 1001] here?
A: 0.1 to 1 µM

Q: With `CNC(=O)c1c(-c2ccc(F)cc2)oc2cc3c(cc12)-c1cc(C(=O)NC(C)(C)C)cc(c1)N(S(C)(=O)=O)CCCCCN3S(C)(=O)=O` [Compound 1002] as the compound, how does the EC50 read?
A: 0.1 to 1 µM

Q: Which EC50 does the source give for `CNC(=O)c1c(-c2ccc(F)cc2)oc2cc3c(cc12)-c1cc(C(=O)NC(C)(C)C)cc(c1)N(S(C)(=O)=O)CCCCCCN3S(C)(=O)=O` [Compound 1003] here?
A: 0.1 to 1 µM

Q: With `CNC(=O)c1c(-c2ccc(F)cc2)oc2cc3c(cc12)-c1cc(C(=O)NC(C)(C)C)cc(c1)N(S(C)(=O)=O)CCCCCCCN3S(C)(=O)=O` [Compound 1004] as the compound, how does the EC50 read?
A: < 0.1 µM

Q: With `CNC(=O)c1c(-c2ccc(F)cc2)oc2cc3c(cc12)-c1cc(C(=O)NC(C)(C)C)cc(c1)N(S(C)(=O)=O)CCCCCCCCN3S(C)(=O)=O` [Compound 1005] as the compound, how does the EC50 read?
A: 0.1 to 1 µM

Q: For `CNC(=O)c1c(-c2ccc(F)cc2)oc2cc3c(cc12)-c1cc(C(=O)NC(C)(C)C)cc(c1)N(S(C)(=O)=O)CCc1ccc(cc1)CCN3S(C)(=O)=O` [Compound 1006], which EC50 is on record?
A: > 1 µM

Q: With `CNC(=O)c1c(-c2ccc(F)cc2)oc2cc3c(cc12)-c1cc(cc(C(=O)NC(C)(C)C)c1)NC(=O)CCCCC(=O)N3` [Compound 1051] as the compound, how does the EC50 read?
A: > 1 µM

Q: Which EC50 does the source give for `CNC(=O)c1c(-c2ccc(F)cc2)oc2cc3c(cc12)-c1cc(cc(C(=O)NC(C)(C)C)c1)NC(=O)CCCCCCCCC(=O)N3` [Compound 1052] here?
A: 0.1 to 1 µM

Q: For `CNC(=O)c1c(-c2ccc(F)cc2)oc2cc3c(cc12)-c1cc(cc(C(=O)NC(C)(C)C)c1)NC(=O)CCCCCCCCCCC(=O)N3` [Compound 1053], which EC50 is on record?
A: 0.1 to 1 µM

Q: With `CNC(=O)c1c(-c2ccc(F)cc2)oc2cc3c(cc12)-c1cc(cc(C(=O)NC(C)(C)C)c1)NC(=O)OCCOC(=O)N3` [Compound 1054] as the compound, how does the EC50 read?
A: > 1 µM

Q: Which EC50 does the source give for `CNC(=O)c1c(-c2ccc(F)cc2)oc2cc3c(cc12)-c1cc(cc(C(=O)NC(C)(C)C)c1)NC(=O)OCCOCCOC(=O)N3` [Compound 1055] here?
A: > 1 µM

Q: For `CNC(=O)c1c(-c2ccc(F)cc2)oc2cc3c(cc12)-c1cc(cc(C(=O)NC(C)(C)C)c1)NC(=O)OCCOCCOCCOC(=O)N3` [Compound 1056], which EC50 is on record?
A: > 1 µM

Q: Which EC50 does the source give for `CNC(=O)c1c(-c2ccc(F)cc2)oc2cc3c(cc12)-c1cc(cc(C(=O)NC(C)(C)C)c1)NC(=S)NCCCCNC(=S)N3` [Compound 1057] here?
A: > 1 µM

Q: For `CNC(=O)c1c(-c2ccc(F)cc2)oc2cc3c(cc12)-c1cc(cc(C(=O)NC(C)(C)C)c1)NC(=S)NCCCCCCCCNC(=S)N3` [Compound 1058], which EC50 is on record?
A: > 1 µM

same assay, conditions: Hepatitis C virus, 72 h, Huh-7, Renilla luciferase, 3 days, read-out: EC50 (uM) 1b

Q: Which EC50 does the source give for `CNC(=O)c1c(-c2ccc(F)cc2)oc2cc3c(cc12)-c1cc(C(=O)NC(C)(C)C)cc(c1)N(S(C)(=O)=O)CCCCN3S(C)(=O)=O` [Compound 1001] here?
A: 0.171 µM

Q: For `CNC(=O)c1c(-c2ccc(F)cc2)oc2cc3c(cc12)-c1cc(C(=O)NC(C)(C)C)cc(c1)N(S(C)(=O)=O)CCCCCCCN3S(C)(=O)=O` [Compound 1004], which EC50 is on record?
A: 0.0477 µM

Q: With `CNC(=O)c1c(-c2ccc(F)cc2)oc2cc3c(cc12)-c1cc(C(=O)NC(C)(C)C)cc(c1)N(S(C)(=O)=O)CCc1ccc(cc1)CCN3S(C)(=O)=O` [Compound 1006] as the compound, how does the EC50 read?
A: 1.21 µM

Q: Which EC50 does the source give for `CNC(=O)c1c(-c2ccc(F)cc2)oc2cc3c(cc12)-c1cc(cc(C(=O)NC(C)(C)C)c1)NC(=O)CCCCCCCCC(=O)N3` [Compound 1052] here?
A: 0.789 µM

Q: For `CNC(=O)c1c(-c2ccc(F)cc2)oc2cc3c(cc12)-c1cc(cc(C(=O)NC(C)(C)C)c1)NC(=O)OCCOCCOCCOC(=O)N3` [Compound 1056], which EC50 is on record?
A: 8.34 µM

tested on: HCV; experiment: not given; details: combination therapy; cited from earlier work

Q: For alpha-interferon and ribavirin, which sustained efficacy is on record?
A: 40 % of patients
